Source: patent US20220403001A1, “PDE5 DERIVED REGULATORY CONSTRUCTS AND METHODS OF USE IN IMMUNOTHERAPY” (Obsidian Therapeutics, Inc., priority 2018, published 2022)
Like-named read-outs stand apart in the source and are kept apart here.

What was measured:
[1] = approved dose, cited from earlier work
hPDE5 Y612F = hPDE5 Y612F (Homo sapiens, UniProt O76074, Y612F); details: Y612F ablates hydrogen bonding potential; Corbin et al. 2006; cited from earlier work
hPDE5 Y612A = hPDE5 Y612A (Homo sapiens, UniProt O76074, Y612A); details: Y612A ablates hydrogen bonding and hydrophobic bonding potential; Corbin et al. 2006; cited from earlier work
hPDE5 mutants [2] = experiment: GFP expression (MFI) by FACS in HEK293 cells expressing hPDE5 constructs
hPDE5 mutants [3] = experiment: Immunoblot (AcGFP antibody) of hPDE5-AcGFP constructs in HEK293 cells; type: cell-based, human; details: compared with wildtype OT-001075
From the text: Puro and used as a control.
Cell lysates obtained from hPDE5N construct expressing cells were immunoblotted using the AcGFP antibody (Clonetech, Mountain View, Calif.). Samples were also immunoblotted with the GAPDH antibody to ensure uniform protein loading.

hPDE5 mutants [4] = molecular target: hPDE5 mutants (Homo sapiens, UniProt O76074); experiment: GFP MFI by FACS in HCT116 cells transduced with hPDE5 constructs; type: cell-based; details: HCT-116
hPDE5 mutants [5] = experiment: as above; type: cell-based, human; details: for MFI / Stabilization ratio / Vardenafil dose response (MFI of GFP): HCT116; for Sildenafil dose response (MFI) / Tadalafil dose response (MFI): HCT 116
hPDE5 mutants [6] = experiment: Western blot of AcGFP/GFP protein levels in HCT 116 cells expressing hPDE5 mutants; type: cell-based, human; details: 10 μM Vardenafil, 24 hours, HCT 116
Procedure: Protein expression analysis of the combination mutants was performed in parallel via western blot. […] GAPDH levels were also analyzed to ensure even protein loading.

[7] = Sildenafil 0.0005 μM, 48 h, HEK293
[8] = Sildenafil 3.33 μM, 48 h, HEK293
[9] = Sildenafil 10 μM, 48 h, HEK293 (dose titration)
[10] = Sildenafil 10 μM, 48 h, HEK293 (time course)
[11] = Vardenafil 0.0005 μM, 48 h, HEK293
[12] = Vardenafil 3.33 μM, 48 h, HEK293
[13] = Vardenafil (10 μM), 48 h, Table 25, cell line not given in table

## CCCc1nn(C)c2c(=O)[nH]c(-c3cc(S(=O)(=O)N4CCN(C)CC4)ccc3OCC)nc12 [Sildenafil]
[1]; IV
  Cmax: […]
[1]; PO
  Cmax: […]
hPDE5 Y612F
  effect of Y612F mutation on inhibition of hPDE5 activity by ligand: increases the inhibition of hPDE5 activity
hPDE5 Y612A
  effect of Y612A mutation on inhibition of hPDE5 catalytic activity by ligand: to a lesser extent
hPDE5 mutants [2]; read-out: EC50 of ligand dependent stabilization, HEK293 cells expressing OT-001076, OT-001083, OT-001084, 48 h
  EC50: […]

## OT-001076: hPDE5-F736A AcGFP construct
hPDE5 mutants [3]
  hPDE5-GFP levels with DMSO treatment (immunoblot): lower than in the wildtype hPDE5 construct
hPDE5 mutants [2]; [7]
  MFI: 6848
  Stabilization ratio: 0.97
hPDE5 mutants [2]; [8]
  MFI: 49220
  Stabilization ratio: 7.00
hPDE5 mutants [2]; Sildenafil 10 μM, 2 h, HEK293
  MFI: 12088
  Stabilization ratio: 1.54
hPDE5 mutants [2]; Sildenafil 10 μM, 4 h, HEK293
  MFI: 14046
  Stabilization ratio: 1.77
hPDE5 mutants [2]; Sildenafil 10 μM, 6 h, HEK293
  MFI: 16710
  Stabilization ratio: 2.11
hPDE5 mutants [2]; Sildenafil 10 μM, 16 h, HEK293
  MFI: 39029
  Stabilization ratio: 4.93
hPDE5 mutants [2]; Sildenafil 10 μM, 24 h, HEK293
  MFI: 51534
  Stabilization ratio: 6.51
hPDE5 mutants [2]; [9]
  MFI: 67084
  Stabilization ratio: 9.53
hPDE5 mutants [2]; [10]
  MFI: 70811
  Stabilization ratio: 8.94
hPDE5 mutants [2]; [11]
  MFI: 11770
  Stabilization ratio: 1.04
hPDE5 mutants [2]; [12]
  MFI: 172990
  Stabilization ratio: 15.33
hPDE5 mutants [2]; Vardenafil 10 μM, 48 h, HEK293
  MFI: 188068
  Stabilization ratio: 16.66
hPDE5 mutants [2]; Vardenafil (1 μM), 48 h, Table 25, cell line not given in table
  Stabilization ratio: 11.52
hPDE5 mutants [2]; Vardenafil (1 μM), 48 h, Table 25, cell line not given in table (HEK293, HCT-116, SKOV-3)
  MFI: 110603
hPDE5 mutants [2]; [13]
  MFI: 143351
  Stabilization ratio: 14.93

## OT-001222: hPDE5 (F736A, D764N) GFP construct
hPDE5 mutants [4]; 10 μM, 48 h
  Sildenafil Stabilization ratio: 1.10
  Vardenafil Stabilization ratio: 4.26
hPDE5 mutants [4]; GFP, 10 μM Sildenafil 48 h
  MFI Sildenafil: 13862
hPDE5 mutants [4]; GFP, 10 μM Vardenafil 48 h
  MFI Vardenafil: 53848
hPDE5 mutants [5]; 10 μM, 48 h, HCT-116
  Vardenafil Stabilization ratio: 4.26
hPDE5 mutants [5]; GFP, DMSO 48 h, HCT-116
  MFI DMSO: 12633
hPDE5 mutants [5]; Sildenafil 0.04 μM, 24 h
  MFI: 8688
  Stabilization ratio: 0.81
hPDE5 mutants [5]; Sildenafil 0.5 μM, 4 hours
  MFI: 5322
  Stabilization ratio: 1.64
hPDE5 mutants [5]; Sildenafil 0.5 μM, 8 hours
  MFI: 5083
  Stabilization ratio: 1.57
hPDE5 mutants [5]; Sildenafil 0.5 μM, 12 hours
  MFI: 5122
  Stabilization ratio: 1.58
hPDE5 mutants [5]; Sildenafil 0.5 μM, 16 hours
  MFI: 5600
  Stabilization ratio: 1.73
hPDE5 mutants [5]; Sildenafil 0.5 μM, 20 hours
  MFI: 6003
  Stabilization ratio: 1.85
hPDE5 mutants [5]; Sildenafil 0.5 μM, 24 hours
  MFI: 6144
  Stabilization ratio: 1.89
hPDE5 mutants [5]; Sildenafil 0.5 μM, 48 hours
  MFI: 6682
  Stabilization ratio: 2.06
hPDE5 mutants [5]; Sildenafil 0.5 μM, 72 hours
  MFI: 6906
  Stabilization ratio: 2.13
hPDE5 mutants [5]; Sildenafil 3.33 μM, 24 h
  MFI: 10384
  Stabilization ratio: 0.97
hPDE5 mutants [5]; Sildenafil 5 μM, 4 hours
  MFI: 6314
  Stabilization ratio: 1.88
hPDE5 mutants [5]; Sildenafil 5 μM, 8 hours
  MFI: 7021
  Stabilization ratio: 2.09
hPDE5 mutants [5]; Sildenafil 5 μM, 12 hours
  MFI: 9199
  Stabilization ratio: 2.73
hPDE5 mutants [5]; Sildenafil 5 μM, 16 hours
  MFI: 12280
  Stabilization ratio: 3.65
hPDE5 mutants [5]; Sildenafil 5 μM, 20 hours
  MFI: 13280
  Stabilization ratio: 3.95
hPDE5 mutants [5]; Sildenafil 5 μM, 24 hours
  MFI: 16705
  Stabilization ratio: 4.97
hPDE5 mutants [5]; Sildenafil 5 μM, 48 hours
  MFI: 22061
  Stabilization ratio: 6.56
hPDE5 mutants [5]; Sildenafil 5 μM, 72 hours
  MFI: 26995
  Stabilization ratio: 8.02
hPDE5 mutants [5]; Sildenafil 10 μM, 24 h
  MFI: 13263
  Stabilization ratio: 1.24
hPDE5 mutants [5]; Sildenafil 11.11 μM, 48 h
  Sildenafil dose response (MFI): 5675
hPDE5 mutants [5]; Sildenafil 30 μM, 24 h
  MFI: 26837
  Stabilization ratio: 2.5
hPDE5 mutants [5]; Sildenafil 33.33 μM, 48 h
  Sildenafil dose response (MFI): 9677
hPDE5 mutants [5]; Sildenafil 100.00 μM, 48 h
  Sildenafil dose response (MFI): 37494
hPDE5 mutants [5]; Sildenafil dose response experiment (Table 27), vs OT-001216
  Destabilizing mutation co-efficient ratio: 0.17
hPDE5 mutants [5]; Table 33, 0.01 μM, 48 h
  Vardenafil dose response (MFI of GFP): 4444
hPDE5 mutants [5]; Table 33, 0.04 μM, 48 h
  Vardenafil dose response (MFI of GFP): 4934
hPDE5 mutants [5]; Table 33, 3.33 μM, 48 h
  Vardenafil dose response (MFI of GFP): 10516
hPDE5 mutants [5]; Table 33, 10.00 μM, 48 h
  Vardenafil dose response (MFI of GFP): 24927
hPDE5 mutants [5]; Tadalafil 11.11 μM, 24 h
  MFI: 13789
  Stabilization ratio: 2.28
hPDE5 mutants [5]; Tadalafil 11.11 μM, 48 h
  Tadalafil dose response (MFI): 8299
hPDE5 mutants [5]; Tadalafil 33.33 μM, 24 h
  MFI: 20464
  Stabilization ratio: 3.39
hPDE5 mutants [5]; Tadalafil 33.33 μM, 48 h
  Tadalafil dose response (MFI): 15831
hPDE5 mutants [5]; Tadalafil 100 μM, 24 h
  MFI: 23542
  Stabilization ratio: 3.9
hPDE5 mutants [5]; Tadalafil 100.00 μM, 48 h
  Tadalafil dose response (MFI): 31020
hPDE5 mutants [5]; Tadalafil dose response experiment (Table 29), vs OT-001216
  Destabilizing mutation coefficient: 0.17
hPDE5 mutants [5]; Vardenafil 0.04 μM, 24 h
  MFI: 6174
  Stabilization ratio: 0.80
hPDE5 mutants [5]; Vardenafil 3.33 μM, 24 h
  MFI: 29520
  Stabilization ratio: 3.84
hPDE5 mutants [5]; Vardenafil 10 μM, 24 h
  MFI: 29971
  Stabilization ratio: 3.90
hPDE5 mutants [5]; Vardenafil 30 μM, 24 h
  MFI: 46109
  Stabilization ratio: 5.99
hPDE5 mutants [5]; Vardenafil dose response experiment (Table 28), vs OT-001216
  Destabilizing mutation coefficient: 0.12
hPDE5 mutants [5]; vs wildtype OT-001216, absence of ligand, HCT-116
  Destabilizing mutation coefficient: 0.19
hPDE5 mutants [6]
  AcGFP protein levels (western blot): Vardenafil dependent stabilization of AcGFP protein levels
